According to patent publication US9351974B2, “Substituted pteridinones for the treatment of cancer” (OSI Pharmaceuticals, LLC, priority 2011, dated 2016):

These compounds were tested against T1, His-tagged full-length RSK2 (RPS6KA3) (Homo sapiens, UniProt P51812) (assay: RSK2 Omnia Assay for compound IC50 determination). Conditions: ATP 15 μM, n=2, read-out: Mean RSK2 Biochem IC50.
T1 construct: His-tagged full-length RSK2 (RPS6KA3, Invitrogen PV3323); His; purchased Invitrogen PV3323
T1 sequence (P51812 whole entry): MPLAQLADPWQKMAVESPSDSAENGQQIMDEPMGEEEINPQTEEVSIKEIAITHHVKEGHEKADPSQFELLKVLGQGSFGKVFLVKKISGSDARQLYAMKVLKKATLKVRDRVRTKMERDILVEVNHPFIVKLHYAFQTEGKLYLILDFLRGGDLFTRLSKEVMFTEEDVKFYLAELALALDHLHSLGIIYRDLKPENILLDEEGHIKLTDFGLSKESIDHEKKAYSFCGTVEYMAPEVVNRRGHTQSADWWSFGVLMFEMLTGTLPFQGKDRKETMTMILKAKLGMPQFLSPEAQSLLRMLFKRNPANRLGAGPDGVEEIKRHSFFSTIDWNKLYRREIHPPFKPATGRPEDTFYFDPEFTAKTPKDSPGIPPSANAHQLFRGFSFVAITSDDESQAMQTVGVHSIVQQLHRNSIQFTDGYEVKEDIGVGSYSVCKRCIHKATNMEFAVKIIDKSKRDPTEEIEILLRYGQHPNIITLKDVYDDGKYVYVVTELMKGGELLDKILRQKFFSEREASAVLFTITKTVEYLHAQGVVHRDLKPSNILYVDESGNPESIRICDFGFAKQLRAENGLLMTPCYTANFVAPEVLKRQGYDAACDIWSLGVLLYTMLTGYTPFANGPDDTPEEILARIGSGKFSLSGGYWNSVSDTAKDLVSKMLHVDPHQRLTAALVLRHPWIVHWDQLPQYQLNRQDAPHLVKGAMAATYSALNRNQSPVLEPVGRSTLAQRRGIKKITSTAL
Type: biochemical
In short: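 Initial-rate slopes from continuous kinetic reads were fitted to a four-parameter equation for IC50 (n=2). Ki was then derived by Cheng-Prusoff assuming ATP-competitive inhibition. Reactions contained 15 μM ATP (Km 16.3 μM), 5 μM Omnia ST Peptide 6, and […] in 50 mM HEPES pH 7.5, 10 mM MgCl2, 1 mM DTT, 1% DMSO. Compounds spanned 11 threefold steps, […] final.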
Compound `COc1c(Nc2ncc3c(n2)N(C2CCCCC2)[C@H](C)C(=O)N3c2cccc(C#N)c2)ccc2[nH]ncc12` [compound 102, 3-[(7R)-8-cyclohexyl-2-[(4-methoxy-1H-indazol-5-yl)amino]-7-methyl-6-oxo-7,8-dihydropteridin-5(6H)-yl]benzonitrile] has an IC50 of 100 to 1000 nM.
For “(7R)-8-cyclohexyl-2-[(7-fluoro-1H-indazol-5-yl)amino]-7-methyl-5-[4-(morpholin-4-yl)phenyl]-7,8-dihydropteridin-6(5H)-one [compound 134]”, the IC50 was no more than 100 nM.
`C[C@@H]1C(=O)N(c2ccc[n+]([O-])c2)c2cnc(Nc3cc(F)c4[nH]ncc4c3)nc2N1C1CCC(C)(C)CC1` [compound 304, (7R)-8-(4,4-dimethylcyclohexyl)-2-[(7-fluoro-1H-indazol-5-yl)amino]-7-methyl-5-(1-oxidopyridin-3-yl)-7,8-dihydropteridin-6(5H)-one] was tested, and the IC50 was no more than 100 nM.
For `COC(=O)c1ccc(N2C(=O)[C@@H](C)N(C3CCCCC3)c3nc(Nc4ccc5[nH]ncc5c4)ncc32)cc1` [Example 52, methyl 4-[(7R)-8-cyclohexyl-2-(1H-indazol-5-ylamino)-7-methyl-6-oxo-7,8-dihydropteridin-5(6H)-yl]benzoate], the IC50 was no more than 100 nM.
Compound `C[C@@H]1C(=O)N(c2cccc(F)c2)c2cnc(Nc3ccc4[nH]ncc4c3)nc2N1C1CCCCC1` [Example 25, (7R)-8-cyclohexyl-5-(3-fluorophenyl)-2-(1H-indazol-5-ylamino)-7-methyl-7,8-dihydropteridin-6(5H)-one] has an IC50 of no more than 100 nM.
`C[C@@H]1C(=O)N(c2ccccc2)c2cnc(Nc3ccc4[nH]ncc4c3)nc2N1CC1CCNCC1` [Example 78, (7R)-2-(1H-indazol-5-ylamino)-7-methyl-5-phenyl-8-(piperidin-4-ylmethyl)-7,8-dihydropteridin-6(5H)-one] gave an IC50 greater than 1000 nM.
For `C[C@@H]1C(=O)N(c2cccc(C#N)c2)c2cnc(Nc3ccc4[nH]nc(F)c4c3)nc2N1C1CCCCC1` [compound 115, 3-[(7R)-8-cyclohexyl-2-[(3-fluoro-1H-indazol-5-yl)amino]-7-methyl-6-oxo-7,8-dihydropteridin-5(6H)-yl]benzonitrile], the IC50 was no more than 100 nM.
Work on `C[C@@H]1C(=O)N(c2cccnc2)c2cnc(Nc3cc(F)c4[nH]ncc4c3)nc2N1[C@H]1CC[C@@H](C)CC1` [compound 240, (7R)-2-[(7-fluoro-1H-indazol-5-yl)amino]-7-methyl-8-(cis-4-methylcyclohexyl)-5-(pyridin-3-yl)-7,8-dihydropteridin-6(5H)-one] yielded an IC50 of no more than 100 nM.
In the case of `C[C@@H]1C(=O)N(c2cccc(C#N)c2)c2cnc(Nc3cc(F)c4[nH]ncc4c3)nc2N1C1CCCCC1` [compound 106, 3-[(7R)-8-cyclohexyl-2-[(7-fluoro-1H-indazol-5-yl)amino]-7-methyl-6-oxo-7,8-dihydropteridin-5(6H)-yl]benzonitrile], the IC50 is reported as no more than 100 nM.
For `C[C@@H]1C(=O)N(c2cccc(C#N)c2)c2cnc(Nc3ccc(O)cn3)nc2N1C1CCCCC1` [compound 168, 3-[(7R)-8-cyclohexyl-2-[(5-hydroxypyridin-2-yl)amino]-7-methyl-6-oxo-7,8-dihydropteridin-5(6H)-yl]benzonitrile], the IC50 was 100 to 1000 nM.
`CC[C@@H]1C(=O)N(c2cccnc2)c2cnc(Nc3cc(F)c4[nH]ncc4c3)nc2N1C1CCCCC1` [compound 288, (7R)-8-cyclohexyl-7-ethyl-2-[(7-fluoro-1H-indazol-5-yl)amino]-5-(pyridin-3-yl)-7,8-dihydropteridin-6(5H)-one] was tested, and the IC50 was no more than 100 nM.
For `C[C@@H]1C(=O)N(c2cccc(C#N)c2)c2cnc(Nc3ccc4[nH]ncc4c3)nc2N1CC1CCC1` [Example 71, 3-[(7R)-8-(cyclobutylmethyl)-2-(1H-indazol-5-ylamino)-7-methyl-6-oxo-7,8-dihydropteridin-5(6H)-yl]benzonitrile], the IC50 was no more than 100 nM.
`C[C@@H]1C(=O)N(c2cccc(F)c2)c2cnc(Nc3cc(F)c4[nH]ncc4c3)nc2N1C1CCC(C)(C)CC1` [Example 211, (7R)-8-(4,4-dimethylcyclohexyl)-2-[(7-fluoro-1H-indazol-5-yl)amino]-5-(3-fluorophenyl)-7-methyl-7,8-dihydropteridin-6(5H)-one] was tested, and the IC50 was no more than 100 nM.
With `C[C@@H]1C(=O)N(c2cccc(C#N)c2)c2cnc(Nc3cc(F)c4[nH]ncc4c3)nc2N1[C@H]1CC[C@@H](C)CC1` [compound 236, 3-[(7R)-2-[(7-fluoro-1H-indazol-5-yl)amino]-7-methyl-8-(cis-4-methylcyclohexyl)-6-oxo-7,8-dihydropteridin-5(6H)-yl]benzonitrile] the IC50 was no more than 100 nM.
For `CC1C(=O)N(c2ccccc2)c2cnc(Nc3ccc4c(c3)CC(=O)N4)nc2N1c1ccccc1` (centres unmarked) [compound 179], the IC50 was 100 to 1000 nM.
`C[C@@H]1C(=O)N(c2ccc(N(C)C)nc2)c2cnc(Nc3ccc4[nH]ncc4c3)nc2N1C1CCCCC1` [compound 129, (7R)-8-cyclohexyl-5-[6-(dimethylamino)pyridin-3-yl]-2-(1H-indazol-5-ylamino)-7-methyl-7,8-dihydropteridin-6(5H)-one] showed an IC50 of no more than 100 nM.
In the case of `C[C@@H]1C(=O)N(c2cccc(C#N)c2)c2cnc(Nc3ccc4[nH]ncc4c3)nc2N1CC1CCOC1` (stereo partly drawn) [Example 82, 3-[(7R)-2-(1H-indazol-5-ylamino)-7-methyl-6-oxo-8-(tetrahydrofuran-3-ylmethyl)-7,8-dihydropteridin-5(6H)-yl]benzonitrile], the IC50 is reported as no more than 100 nM.
With `C[C@@H]1C(=O)N(c2ccncc2)c2cnc(Nc3ccc4[nH]ncc4c3)nc2N1C1CCCCC1` [Example 20, (7R)-8-cyclohexyl-2-(1H-indazol-5-ylamino)-7-methyl-5-(pyridin-4-yl)-7,8-dihydropteridin-6(5H)-one] the IC50 was no more than 100 nM.
For `C[C@@H]1C(=O)N(c2cccc(C#N)c2)c2cnc(Nc3ccc4[nH]nc(C#N)c4c3)nc2N1C1CCCCC1` [compound 157, 5-{[(7R)-5-(3-cyanophenyl)-8-cyclohexyl-7-methyl-6-oxo-5,6,7,8-tetrahydropteridin-2-yl]amino}-1H-indazole-3-carbonitrile], the IC50 was 100 to 1000 nM.
Compound `CCOc1ccc(N2C(=O)[C@@H](C)N([C@H]3CC[C@H](C)CC3)c3nc(Nc4ccc5[nH]c(=O)oc5c4)ncc32)cc1C#N` [compound 247, 2-Ethoxy-5-[(7R)-7-methyl-8-(trans-4-methylcyclohexyl)-6-oxo-2-[(2-oxo-2,3-dihydro-1,3-benzoxazol-6-yl)amino]-7,8-dihydropteridin-5(6H)-yl]benzonitrile] has an IC50 of no more than 100 nM.
`COc1ccc(N2C(=O)[C@@H](C)N(C3CCOCC3)c3nc(Nc4cnc5[nH]ncc5c4)ncc32)cc1C#N` [compound 200, 2-methoxy-5-[(7R)-7-methyl-6-oxo-2-(1H-pyrazolo[3,4-b]pyridin-5-ylamino)-8-(tetrahydro-2H-pyran-4-yl)-7,8-dihydropteridin-5(6H)-yl]benzonitrile] was tested, and the IC50 was no more than 100 nM.
`C[C@@H]1C(=O)N(c2cccc(C#N)c2)c2cnc(Nc3cc(F)c4[nH]ncc4c3)nc2N1C1CCCC1` [Example 219, 3-[(7R)-8-cyclopentyl-2-[(7-fluoro-1H-indazol-5-yl)amino]-7-methyl-6-oxo-7,8-dihydropteridin-5(6H)-yl]benzonitrile] showed an IC50 of no more than 100 nM.
`CC(C)CCN1c2nc(Nc3cccc(C(=O)O)c3)ncc2N(c2ccccc2)C(=O)C1C` (centres unmarked) [Example 15, 3-{[7-methyl-8-(3-methylbutyl)-6-oxo-5-phenyl-5,6,7,8-tetrahydropteridin-2-yl]amino}benzoic acid] showed an IC50 greater than 1000 nM.
